In PubChem BioAssay AID330 (DTP/NCI, 2004):
“And” between values parts separate entries of the source, which are not always exact repeats. Identical values can stand only once. Toxic doses and inconclusive results are not listed.

Tested on: P388 leukemia ip, CD2F1 mice, survival T/C
Test: NCI In Vivo Anticancer Drug Screen. Data for tumor model P388 Leukemia (intraperitoneal) in CD2F1 (CDF1) mice
Details: endpoint: median survival time, higher = longer survival
Method in brief: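 Mice carrying the transplanted tumor received test compound or vehicle. Survival was recorded in each group, and the value is the treated-group measurement divided by that of the vehicle-treated control group.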

[1] = dose: 25.0 mg/kg/injection, schedule: Q01DX005 (ip), vehicle: saline
[2] = dose: 50.0 mg/kg/injection, schedule: Q01DX005 (ip), vehicle: saline
[3] = dose: 50.0 mg/kg/injection, schedule: Q01DX005 (ip), vehicle: saline with Tween-80
[4] = dose: 100.0 mg/kg/injection, schedule: Q01DX005 (ip), vehicle: saline with Tween-80
[5] = dose: 50.0 mg/kg/injection, schedule: Q01DX005 (ip), vehicle: Klucel (hydroxypropylcellulose) (HPC)
[6] = dose: 100.0 mg/kg/injection, schedule: Q01DX005 (ip), vehicle: Klucel (hydroxypropylcellulose) (HPC)
[7] = dose: 200.0 mg/kg/injection, schedule: Q01DX005 (ip), vehicle: Klucel (hydroxypropylcellulose) (HPC)
[8] = dose: 50.0 mg/kg/injection, schedule: Q01DX009 (ip), vehicle: saline with Tween-80
[9] = dose: 100.0 mg/kg/injection, schedule: Q01DX009 (ip), vehicle: saline with Tween-80
[10] = dose: 100.0 mg/kg/injection, schedule: Q01DX001 (ip), vehicle: saline with Tween-80
[11] = dose: 60.0 mg/kg/injection, schedule: Q01DX005 (ip), vehicle: saline with Tween-80
[12] = dose: 120.0 mg/kg/injection, schedule: Q01DX005 (ip), vehicle: saline with Tween-80
[13] = dose: 240.0 mg/kg/injection, schedule: Q01DX005 (ip), vehicle: saline with Tween-80

OCC1(C2CCCNC2)OCCO1 (stereo not drawn)
T/C [1]: 100 % of control
T/C [2]: 111 % of control and 97 % of control
T/C (dose: 100.0 mg/kg/injection, schedule: Q01DX005 (ip), vehicle: saline): 107 % of control
T/C (dose: 200.0 mg/kg/injection, schedule: Q01DX005 (ip), vehicle: saline): 108 % of control

C/C(=N\NC(=S)N1CCC(C)CC1)c1ncccn1
T/C (dose: 12.5 mg/kg/injection, schedule: Q04DX003 (ip), vehicle: Klucel (hydroxypropylcellulose) (HPC)): 117 % of control
T/C (dose: 25.0 mg/kg/injection, schedule: Q04DX003 (ip), vehicle: Klucel (hydroxypropylcellulose) (HPC)): 91 % of control

CN(CNC(N)=O)N=O
T/C (dose: 50.0 mg/kg/injection, schedule: Q01DX009 (ip), vehicle: water): 99 % of control
T/C (dose: 100.0 mg/kg/injection, schedule: Q01DX009 (ip), vehicle: water): 108 % of control
T/C (dose: 200.0 mg/kg/injection, schedule: Q01DX009 (ip), vehicle: water): 107 % of control

COc1cc2ccc(C(C)=O)c(O)c2cc1OC
T/C (dose: 12.5 mg/kg/injection, schedule: Q01DX009 (ip), vehicle: other): 92 % of control
T/C (dose: 25.0 mg/kg/injection, schedule: Q01DX009 (ip), vehicle: other): 101 % of control
T/C (dose: 50.0 mg/kg/injection, schedule: Q01DX009 (ip), vehicle: other): 90 % of control
T/C (dose: 100.0 mg/kg/injection, schedule: Q01DX009 (ip), vehicle: other): 108 % of control
T/C (dose: 200.0 mg/kg/injection, schedule: Q01DX009 (ip), vehicle: other): 97 % of control
T/C (dose: 400.0 mg/kg/injection, schedule: Q01DX009 (ip), vehicle: other): 99 % of control

CCOC(=O)NC(=S)Nc1cn(C)cc1[N+](=O)[O-]
T/C [3]: 100 % of control
T/C [4]: 100 % of control
T/C (dose: 200.0 mg/kg/injection, schedule: Q01DX005 (ip), vehicle: saline with Tween-80): 95 % of control

COc1cccc2c1C(=O)c1c(O)c3c(c(O)c1C2=O)C[C@@](O)(/C(C)=N/NC(=O)c1ccc(Cl)cc1)C[C@@H]3OC1CC(N)C(O)C(C)O1 (stereo partly drawn)
T/C (dose: 0.12 mg/kg/injection, schedule: Q01DX009 (ip), vehicle: water): 110 % of control
T/C (dose: 0.5 mg/kg/injection, schedule: Q01DX009 (ip), vehicle: water): 155 % of control
T/C (dose: 1.0 mg/kg/injection, schedule: Q01DX009 (ip), vehicle: water): 180 % of control
T/C (dose: 2.0 mg/kg/injection, schedule: Q01DX009 (ip), vehicle: water): 161 % of control and 166 % of control
T/C (dose: 4.0 mg/kg/injection, schedule: Q01DX009 (ip), vehicle: water): 211 % of control
T/C (dose: 5.0 mg/kg/injection, schedule: Q01DX001 (ip), vehicle: water): 181 % of control
T/C (dose: 8.0 mg/kg/injection, schedule: Q01DX009 (ip), vehicle: water): 109 % of control
T/C (dose: 10.0 mg/kg/injection, schedule: Q01DX001 (ip), vehicle: water): 192 % of control
T/C (dose: 20.0 mg/kg/injection, schedule: Q01DX001 (ip), vehicle: water): 108 % of control

Cc1ccc(NC(=O)C#N)cc1
T/C (dose: 15.0 mg/kg/injection, schedule: Q01DX005 (ip), vehicle: saline with Tween-80): 107 % of control
T/C (dose: 30.0 mg/kg/injection, schedule: Q01DX005 (ip), vehicle: saline with Tween-80): 96 % of control

O=P(C(=S)Nc1ccc(S(=O)(=O)N2CCCCC2)cc1)(c1ccccc1)c1ccccc1
T/C (dose: 50.0 mg/kg/injection, schedule: Q01DX009 (ip), vehicle: Klucel (hydroxypropylcellulose) (HPC)): 97 % of control
T/C (dose: 100.0 mg/kg/injection, schedule: Q01DX009 (ip), vehicle: Klucel (hydroxypropylcellulose) (HPC)): 95 % of control
T/C (dose: 200.0 mg/kg/injection, schedule: Q01DX009 (ip), vehicle: Klucel (hydroxypropylcellulose) (HPC)): 98 % of control

O=c1[nH]c(=O)c2cc3[nH]ncc3cc2[nH]1
T/C (dose: 25.0 mg/kg/injection, schedule: Q01DX005 (ip), vehicle: saline with Tween-80): 93 % of control
T/C [3]: 93 % of control
T/C [4]: 92 % of control

[O-]c1n[n+](Cc2ccc(Cl)cc2)no1
T/C (dose: 100.0 mg/kg/injection, schedule: Q04DX003 (ip), vehicle: Klucel (hydroxypropylcellulose) (HPC)): 102 % of control
T/C (dose: 200.0 mg/kg/injection, schedule: Q04DX003 (ip), vehicle: Klucel (hydroxypropylcellulose) (HPC)): 119 % of control

COc1ccc(N2CCCSC2=S)cc1
T/C (dose: 50.0 mg/kg/injection, schedule: Q01DX005 (ip), vehicle: saline + Tween-80 + alcohol): 101 % of control
T/C (dose: 100.0 mg/kg/injection, schedule: Q01DX005 (ip), vehicle: saline + Tween-80 + alcohol): 101 % of control
T/C (dose: 200.0 mg/kg/injection, schedule: Q01DX005 (ip), vehicle: saline + Tween-80 + alcohol): 100 % of control

O=C(O)CCOc1cccc(OCCC(=O)O)c1
T/C [5]: 102 % of control
T/C [6]: 98 % of control
T/C [7]: 99 % of control

Cc1cc(C)nc(NS(=O)(=O)c2ccc(NC(=O)c3ccncc3)cc2)n1
T/C [5]: 95 % of control
T/C [6]: 96 % of control
T/C [7]: 91 % of control

CC(C)c1ccc(OS(=O)(=O)C(F)(F)C(F)(F)C(F)(F)C(F)(F)F)cc1
T/C [8]: 99 % of control
T/C [9]: 105 % of control

CC(=O)Nc1c(-c2ccccc2)[nH]c2ccccc12
T/C [10]: 99 % of control

CCCCNc1ccc(-c2c(N)nc(N)nc2CC)cc1[N+](=O)[O-]
T/C [11]: 111 % of control and 118 % of control
T/C [12]: 121 % of control
T/C [13]: 206 % of control
T/C (dose: 480.0 mg/kg/injection, schedule: Q01DX005 (ip), vehicle: saline with Tween-80): 158 % of control

CN(C)Cc1ccc2ccccc2c1O
T/C (dose: 50.0 mg/kg/injection, schedule: Q01DX009 (ip), vehicle: saline): 104 % of control
T/C (dose: 100.0 mg/kg/injection, schedule: Q01DX009 (ip), vehicle: saline): 109 % of control

Cc1nnc2c3[nH]c4ccccc4c3cnn12
T/C (dose: 60.0 mg/kg/injection, schedule: Q01DX005 (ip), vehicle: saline): 104 % of control
T/C (dose: 120.0 mg/kg/injection, schedule: Q01DX005 (ip), vehicle: saline): 95 % of control
T/C (dose: 240.0 mg/kg/injection, schedule: Q01DX005 (ip), vehicle: saline): 103 % of control

CCCCC(CCCC)=NNC(=S)SC
T/C [8]: 100 % of control
T/C [9]: 100 % of control

Cc1ccc2c(c1)Pc1cc(C)ccc1S2
T/C (dose: 60.0 mg/kg/injection, schedule: Q01DX005 (ip), vehicle: Klucel (hydroxypropylcellulose) (HPC)): 109 % of control
T/C (dose: 120.0 mg/kg/injection, schedule: Q01DX005 (ip), vehicle: Klucel (hydroxypropylcellulose) (HPC)): 101 % of control
T/C (dose: 240.0 mg/kg/injection, schedule: Q01DX005 (ip), vehicle: Klucel (hydroxypropylcellulose) (HPC)): 104 % of control

Cc1cc2c(cc1C)C(O)(C#Cc1ccccc1)c1c(C)ccc(C)c1C2=O (stereo not drawn)
T/C (dose: 100.0 mg/kg/injection, schedule: Q04DX003 (ip), vehicle: saline with Tween-80): 100 % of control
T/C (dose: 200.0 mg/kg/injection, schedule: Q04DX003 (ip), vehicle: saline with Tween-80): 100 % of control
T/C (dose: 400.0 mg/kg/injection, schedule: Q04DX003 (ip), vehicle: saline with Tween-80): 97 % of control

O=Cc1cc(-c2ccccc2)n(-c2ccccc2)c1-c1ccccc1
T/C [11]: 96 % of control
T/C [12]: 98 % of control
T/C [13]: 97 % of control

COc1ccc2c(=O)c(S)coc2c1
T/C [11]: 100 % of control
T/C [12]: 101 % of control
T/C [13]: 100 % of control

O=C1NN2CCN=C2c2cnccc21
T/C (dose: 100.0 mg/kg/injection, schedule: Q04DX002 (ip), vehicle: saline): 98 % of control
T/C (dose: 200.0 mg/kg/injection, schedule: Q04DX002 (ip), vehicle: saline): 93 % of control
T/C (dose: 400.0 mg/kg/injection, schedule: Q04DX002 (ip), vehicle: saline): 92 % of control

CC1=CCN(C)C(C#N)C1 (stereo not drawn)
T/C (dose: 12.5 mg/kg/injection, schedule: Q01DX005 (ip), vehicle: saline): 97 % of control
T/C [1]: 105 % of control
T/C [2]: 105 % of control

OCCOc1ccc2ccccc2c1-c1c(OCCOc2ccc3ccccc3c2-c2c(OCCO)ccc3ccccc23)ccc2ccccc12
T/C [10]: 96 % of control
T/C (dose: 200.0 mg/kg/injection, schedule: Q01DX001 (ip), vehicle: saline with Tween-80): 88 % of control
T/C (dose: 400.0 mg/kg/injection, schedule: Q01DX001 (ip), vehicle: saline with Tween-80): 92 % of control

COC(=O)c1nc(N)nc(C(=O)OC)c1C(=O)c1ccc(Cl)c(Cl)c1
T/C [11]: 100 % of control
T/C [12]: 94 % of control
